Columns and labels:
HepG2 [1] = assay: cell viability relative to DMSO; higher = less toxic; conditions: 72 h
Caco-2 [2] = assay: as above; conditions: 72 h
Vero E6 [3] = assay: as above; conditions: 72 h
U2OS [4] = assay: as above; conditions: 72 h
Calu-3 [5] = assay: as above; conditions: 72 h
A549-ACE2 [6] = assay: drug-induced phospholipidosis relative to tamoxifen; higher = more phospholipidosis
[7] = tested on: A549-ACE2 infected with SARS-CoV-2; assay: SARS-CoV-2 infection rate relative to DMSO; higher = more infection; conditions: 24 h
HepG2 [8] = assay: relative viability EC50 (midpoint between 100% and the lowest measured viability); higher = less toxic; conditions: 72 h
Calu-3 [9] = assay: as above; conditions: 72 h
A549-ACE2 [10] = assay: phospholipidosis EC50; higher = less potent phospholipidosis inducer
[11] = tested on: A549-ACE2 infected with SARS-CoV-2; assay: cell count relative to DMSO; higher = less toxic; conditions: 24 h
HepG2 [12] = assay: drug sensitivity score (DSS) for viability; higher = more toxic; extreme values may be limits of the assay; conditions: 72 h
Caco-2 [13] = assay: as above; conditions: 72 h
Vero E6 [14] = assay: as above; conditions: 72 h
U2OS [15] = assay: as above; conditions: 72 h
Calu-3 [16] = assay: as above; conditions: 72 h
[17] = tested on: A549-ACE2 infected with SARS-CoV-2; assay: morphology score (similarity to uninfected cells); higher = more like uninfected cells; conditions: 24 h
Vero E6 [18] = assay: relative viability EC50 (midpoint between 100% and the lowest measured viability); higher = less toxic; conditions: 72 h

C1CCC(C(CC2CCCCN2)C2CCCCC2)CC1 (configuration not stated) [perhexiline]
Conditions	SARS-CoV-2 infection rate [%]	cell count [%]	cell viability [%]	morphology score	phospholipidosis EC50 [nM]
A549-ACE2 [10], 24 h	–	–	–	–	945
A549-ACE2 [10], 48 h	–	–	–	–	2480
A549-ACE2 [10], 72 h	–	–	–	–	4510
Caco-2 [2], 1 nM	–	–	92.7	–	–
Caco-2 [2], 10 nM	–	–	101	–	–
Caco-2 [2], 100 nM	–	–	93.9	–	–
Caco-2 [2], 1000 nM	–	–	90.9	–	–
Caco-2 [2], 10000 nM	–	–	63.5	–	–
Calu-3 [5], 1 nM	–	–	108	–	–
Calu-3 [5], 10 nM	–	–	101	–	–
Calu-3 [5], 100 nM	–	–	92.6	–	–
Calu-3 [5], 1000 nM	–	–	101	–	–
Calu-3 [5], 10000 nM	–	–	1.9	–	–
HepG2 [1], 1 nM	–	–	98.9	–	–
HepG2 [1], 10 nM	–	–	99.5	–	–
HepG2 [1], 100 nM	–	–	103	–	–
HepG2 [1], 1000 nM	–	–	95.1	–	–
HepG2 [1], 10000 nM	–	–	38.6	–	–
U2OS [4], 1 nM	–	–	101	–	–
U2OS [4], 10 nM	–	–	103	–	–
U2OS [4], 100 nM	–	–	103	–	–
U2OS [4], 1000 nM	–	–	98.6	–	–
U2OS [4], 10000 nM	–	–	62	–	–
Vero E6 [3], 1 nM	–	–	106	–	–
Vero E6 [3], 10 nM	–	–	103	–	–
Vero E6 [3], 100 nM	–	–	99.5	–	–
Vero E6 [3], 1000 nM	–	–	95.3	–	–
Vero E6 [3], 10000 nM	–	–	71.1	–	–
[7], 0.1 µM	100	–	–	–	–
[7], 0.3 µM	104	–	–	–	–
[7], 1 µM	79	–	–	–	–
[7], 3 µM	36	–	–	–	–
[11], 0.1 µM	–	99	–	–	–
[11], 0.3 µM	–	96	–	–	–
[11], 1 µM	–	105	–	–	–
[11], 3 µM	–	123	–	–	–
[17], 0.1 µM	–	–	–	-0.02	–
[17], 0.3 µM	–	–	–	-0.25	–
[17], 1 µM	–	–	–	0.35	–
[17], 3 µM	–	–	–	0.91	–

drug-induced phospholipidosis [%], A549-ACE2 [6]
Conditions	0.3 µM	0.833333 µM	3.33333 µM	6.66667 µM	10 µM	30 µM
24 h	3.79	25.8	87.2	113	106	26.8
48 h	4.34	16.1	84.3	113	121	–
72 h	5.16	14.3	68.3	99.9	120	–

Conditions	drug sensitivity score	relative viability EC50 [nM]
Caco-2 [13]	2.9	–
Calu-3 [9]	–	3240
Calu-3 [16]	5.4	–
HepG2 [8]	–	2510
HepG2 [12]	4.1	–
U2OS [15]	2	–
Vero E6 [14]	2	–

CCN(CC)CC1CCN(c2ncc3ncnc(Nc4ccc(F)c(Cl)c4)c3n2)CC1 [BIBU-1361]
Conditions	SARS-CoV-2 infection rate [%]	cell count [%]	cell viability [%]	morphology score	phospholipidosis EC50 [nM]
A549-ACE2 [10], 24 h	–	–	–	–	3200
A549-ACE2 [10], 48 h	–	–	–	–	3880
A549-ACE2 [10], 72 h	–	–	–	–	3900
Caco-2 [2], 1 nM	–	–	98	–	–
Caco-2 [2], 10 nM	–	–	85.1	–	–
Caco-2 [2], 100 nM	–	–	103	–	–
Caco-2 [2], 1000 nM	–	–	74.1	–	–
Caco-2 [2], 10000 nM	–	–	50.3	–	–
Calu-3 [5], 1 nM	–	–	100	–	–
Calu-3 [5], 10 nM	–	–	100	–	–
Calu-3 [5], 100 nM	–	–	90.7	–	–
Calu-3 [5], 1000 nM	–	–	56.7	–	–
Calu-3 [5], 10000 nM	–	–	8.7	–	–
HepG2 [1], 1 nM	–	–	100	–	–
HepG2 [1], 10 nM	–	–	100	–	–
HepG2 [1], 100 nM	–	–	106	–	–
HepG2 [1], 1000 nM	–	–	90	–	–
HepG2 [1], 10000 nM	–	–	40.4	–	–
U2OS [4], 1 nM	–	–	100	–	–
U2OS [4], 10 nM	–	–	104	–	–
U2OS [4], 100 nM	–	–	101	–	–
U2OS [4], 1000 nM	–	–	96.6	–	–
U2OS [4], 10000 nM	–	–	57.3	–	–
Vero E6 [3], 1 nM	–	–	97.3	–	–
Vero E6 [3], 10 nM	–	–	96.4	–	–
Vero E6 [3], 100 nM	–	–	93.1	–	–
Vero E6 [3], 1000 nM	–	–	63.2	–	–
Vero E6 [3], 10000 nM	–	–	42.9	–	–
[7], 0.3 µM	98	–	–	–	–
[7], 3 µM	26	–	–	–	–
[7], 10 µM	27	–	–	–	–
[7], 30 µM	90	–	–	–	–
[11], 0.3 µM	–	105	–	–	–
[11], 3 µM	–	117	–	–	–
[11], 10 µM	–	122	–	–	–
[11], 30 µM	–	72	–	–	–
[17], 0.3 µM	–	–	–	0.01	–
[17], 3 µM	–	–	–	0.87	–
[17], 10 µM	–	–	–	0.28	–
[17], 30 µM	–	–	–	-0.37	–

drug-induced phospholipidosis [%], A549-ACE2 [6]
Conditions	0.3 µM	0.833333 µM	3.33333 µM	6.66667 µM	10 µM	30 µM
24 h	2.83	15.5	75.3	121	120	99.8
48 h	4.06	11.5	65.6	111	126	–
72 h	4.98	9.71	51.2	111	123	–

Conditions	drug sensitivity score	relative viability EC50 [nM]
Caco-2 [13]	5.9	–
Calu-3 [9]	–	1020
Calu-3 [16]	10.1	–
HepG2 [8]	–	1890
HepG2 [12]	4.9	–
U2OS [15]	2.7	–
Vero E6 [14]	7.8	–
Vero E6 [18]	–	573

From the supplement of paper PMC13380429
